Literature values as cited in patent publication US20240299470A1, “METHODS OF PROBIOTIC TREATMENT TO IMPROVE HUMAN HEALTH” (SEED HEALTH INC., priority 2021, published 2024).

Columns and labels:
overweight individuals = conditions: delivered directly in the colon
mice = conditions: NOD2-dependent but MyD88-independent

## CCC(=O)O [propionate]
Overweight individuals
  energy intake, adiposity, and lipid liver content: reduced
  plasma levels of peptide YY (PYY) and glucagon-like peptide 1 (GLP-1): increased

## M-tri-Lys
mice
  protection from colitis: protected mice from colitis
